Results as given in article PMC11258883 (Protein Science : A Publication of the Protein Society, 2024).

Biological target: T1, MenD (Escherichia coli, UniProt P17109)
T1 sequence (P17109 1-556): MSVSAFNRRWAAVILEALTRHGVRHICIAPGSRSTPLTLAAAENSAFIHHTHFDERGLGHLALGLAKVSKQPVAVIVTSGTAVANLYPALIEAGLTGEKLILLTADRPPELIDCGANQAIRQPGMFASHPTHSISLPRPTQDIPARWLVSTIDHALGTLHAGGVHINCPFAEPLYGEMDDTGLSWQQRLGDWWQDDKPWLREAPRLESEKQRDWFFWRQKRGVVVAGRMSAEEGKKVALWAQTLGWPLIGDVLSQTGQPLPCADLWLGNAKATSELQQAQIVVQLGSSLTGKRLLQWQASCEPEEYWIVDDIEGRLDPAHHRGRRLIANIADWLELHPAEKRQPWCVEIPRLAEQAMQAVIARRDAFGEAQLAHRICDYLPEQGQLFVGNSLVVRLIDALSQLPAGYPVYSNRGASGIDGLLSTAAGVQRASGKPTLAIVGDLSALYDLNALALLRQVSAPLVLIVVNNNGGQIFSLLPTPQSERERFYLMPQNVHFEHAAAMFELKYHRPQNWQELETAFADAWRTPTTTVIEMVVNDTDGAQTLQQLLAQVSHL
Assay: MenD activity assay, OD278 decrease
Assay type: biochemical
Conditions: 66 nM MenD, 50 μM thiamine pyrophosphate, 660 μM 2-ketoglutarate, 5 mM MgSO4, pH 8.0; chorismate:isochorismate equilibrium mixture

C=C(O[C@H]1C=CC=C(C(=O)O)[C@@H]1O)C(=O)O [isochorismate]
MenD activity assay, OD278 decrease: initial velocities were measured as decrease in OD278 upon MenD consumption of isochorismate
